Measured values taken from patent publication US5607919A, “Anti-microbial proteins” (Sandoz Ltd., priority 1993, dated 1997).

B1: WIN N: chitin-binding WIN protein purified from barley grain or stressed barley leaf; residues 22-146 in SEQ ID No. 11 (protein)
chain: QQANNVRATYHYYRPAQNNWDLGAPAVSAYCATWDASKPLSWRSKYGWTAFCGPAGPRGQAACGKCLRVTNPATGAQITARIVDQCANGGLDLDWDTVFTKIDTNGIGYQQGHLNVNYQFVDCRD

Columns and labels:
[1] = system: Colletotrichum graminicola; test: Anti-fungal activity against corn pathogens, microtiter spore assay; type: cell-based; details: 120 h; ni = did not inhibit fungal growth
Diplodia maydis = test: as above; type: cell-based; details: 120 h; ni = did not inhibit fungal growth
Bipolaris maydis = test: as above; type: cell-based; details: 120 h; ni = did not inhibit fungal growth
Procedure: (§1) The AX proteins according to the present invention are assessed for their anti-fungal activity against a number of corn pathogens. Concerning the results depicted in Tables 1 and 2, the assay of the AX proteins in respect of the corn pathogens is performed as follows. Five μl of a solution containing the proteins at the indicated concentrations are aseptically transferred into a well of a sterile, round-bottomed microtiter plate. All treatments are replicated once. Un-inoculated and inoculated culture media minus test protein solution are routinely included as controls. Spores (100-150) are aseptically added to each sample in a 5.0 μl aliquot of double strength Potato Dextrose Broth (PDB).
(§2) Following gentle agitation to mix the protein sample and spore suspension, a double layer of parafilm is wrapped around the lid/plate junction in order to minimize desiccation and the thus wrapped microtiter plate is incubated at 19°±0.2° C. with a 16 h photoperiod.
(§3) Individual wells are scored for spore germination and mycelial growth every 24 h. At the end of 120 h the level of anti-fungal activity is determined.

[2] = system: Exserohilum turcicum race 1; test: as above; type: cell-based; details: 120 h; ni = did not inhibit fungal growth
Procedure: as §1, §2, §3

[3] = system: Exserohilum turcicum race 2; type: cell-based; details: 120 h; ni = did not inhibit fungal growth
Fusarium graminearum = type: cell-based; details: 120 h; ni = did not inhibit fungal growth
Fusarium moniliforme = test: Anti-fungal activity against corn pathogens, microtiter spore assay; type: cell-based; details: 120 h; ni = did not inhibit fungal growth
Gibberella zeae = type: cell-based; details: 120 h; ni = did not inhibit fungal growth
Exserohilum turcicum = test: Anti-fungal activity against corn pathogens, microtiter spore assay (Table 2, race not given); type: cell-based; details: 120 h; ni = did not inhibit fungal growth
Monilinia fructigena = test: Mycelial growth in agar droplets coated with test protein; type: cell-based; details: protein concentration 20 μg/ml; 5 days; ni = did not inhibit
Cochliobolus sativus = test: as above; type: cell-based; details: protein concentration 20 μg/ml; 5 days; ni = did not inhibit
[4] = system: Pseudocercosporella herpotrichoides; test: as above; type: cell-based; details: 5 days
Pyricularia oryzae = type: cell-based; details: protein concentration 20 μg/ml; 5 days; ni = did not inhibit
Rhizoctonia solani = test: Mycelial growth in agar droplets coated with test protein; type: cell-based; details: 5 days
Fusarium culmorum = test: as above; type: cell-based; details: protein concentration 20 μg/ml; 5 days; ni = did not inhibit
Procedure: Concerning the results shown in Table 3, the assay of the AX and WIN N proteins in respect of the disclosed pathogens is performed as follows. Mycelium from the disclosed fungi are dispersed in a drop of molten agar which is then solidified. The solid agar droplets comprising the encapsulated mycelia are then coated with the test protein in the specified amount. Following incubation for 5 days under moist conditions the amount of mycelial growth is determined in comparison with controls, in which the agar droplets comprising the fungal roycelia are not coated with test protein. The results presented in […]

Leptosphaeria nodorum = test: as above; type: cell-based; details: protein concentration 20 μg/ml; 5 days; ni = did not inhibit
Botrytis cinerea = test: as above; type: cell-based; details: protein concentration 20 μg/ml; 5 days; ni = did not inhibit
C. beticola = test: Inhibition of fungal growth in 96 well micro-titre plates at 620 nm, spores of C. beticola; type: cell-based, Cercospora beticola; details: for 50% growth inhibition (I50) / IC50: C. beticola, after 72 hours incubation; for IC50: conversion of the ug/ml value, read-out: 50% growth inhibition (I50); for morphology of the fungus: FIG. 4, AX2 8 μg/ml, WIN 28 μg/ml; for rate of fungal hyphal extension: compared to controls
[5] = protein concentration 20 μg/ml, ni = did not inhibit

| Molecule | Minimum inhibitory concentration [1] | Protein concentration providing more than 50% growth inhibition [1] | Minimum inhibitory concentration (Diplodia maydis) | Protein concentration providing more than 50% growth inhibition (Diplodia maydis) | Minimum inhibitory concentration (Bipolaris maydis) | Protein concentration providing more than 50% growth inhibition (Bipolaris maydis) | Minimum inhibitory concentration [2] | Minimum inhibitory concentration [3] | Minimum inhibitory concentration (Fusarium graminearum) | Protein concentration providing more than 50% growth inhibition (Fusarium graminearum) | Minimum inhibitory concentration (Fusarium moniliforme) | Protein concentration providing more than 50% growth inhibition (Fusarium moniliforme) | Minimum inhibitory concentration (Gibberella zeae) | Protein concentration providing more than 50% growth inhibition (Gibberella zeae) | Protein concentration providing more than 50% growth inhibition (Exserohilum turcicum) | Growth inhibition (Monilinia fructigena) | Growth inhibition (Cochliobolus sativus) | Growth inhibition (Pyricularia oryzae) | Growth inhibition (Fusarium culmorum) | Growth inhibition (Leptosphaeria nodorum) | also measured |
| --- | --- | --- | --- | --- | --- | --- | --- | --- | --- | --- | --- | --- | --- | --- | --- | --- | --- | --- | --- | --- | --- |
| AX1: anti-microbial protein from sugar beet leaves infected with Cercospora beticola; residues 29-74 in SEQ ID No. 2, 46 amino acids (AICKKPSKFFKGACGRDADCEKACDQENWPGGVCVPFLRCECQRSC) | 50 µg/mL | 50 µg/mL | 11 µg/mL | 11 µg/mL | 20 µg/mL | 20 µg/mL | 11 µg/mL | 33 µg/mL | 33 µg/mL | 33 µg/mL | ni | ni | ni | ni | 33 µg/mL | 80% | 30% | ni | ni | ni | Growth inhibition ([4]; protein concentration 20 μg/ml): 30%; Growth inhibition (Rhizoctonia solani; [5]): ni; Growth inhibition (Botrytis cinerea): ni |
| AX2: anti-microbial protein from sugar beet leaves infected with Cercospora beticola; residues 29-74 in SEQ ID No. 5, 46 amino acids (ATCRKPSMYFSGACFSDTNCQKACNREDWPNGKCLVGFKCECQRPC) | 50 µg/mL | 50 µg/mL | ni | ni | 30 µg/mL | 33 µg/mL | 98 µg/mL | ni | 33 µg/mL | 33 µg/mL | ni | ni | ni | ni | ni | 80% | 30% | 20% | 10% | 10% | 50% growth inhibition (I50) (C. beticola): 2 µg/mL; IC50 (C. beticola): ~0.5 µM; morphology of the fungus (C. beticola): markedly changed; growth in vitro of C. beticola (C. beticola; FIGS. 3A and 3B, result in words): greater than that of AX1; rate of fungal hyphal extension (C. beticola): profoundly slow; fungicidal activity against C. beticola (C. beticola; result in words): do not appear to exhibit fungicidal activity; Growth inhibition ([4]; protein concentration 20 μg/ml): 30%; Growth inhibition (Rhizoctonia solani; protein concentration 40 μg/ml): 10%; Growth inhibition (Botrytis cinerea): 10% |
| B1 | ni | ni | 64 µg/mL | 64 µg/mL | ni | ni | ni | 193 µg/mL | ni | ni | ni | ni | ni | ni | 193 µg/mL | ni | ni | ni | ni | ni | 50% growth inhibition (I50) (C. beticola): 160 µg/mL; IC50 (C. beticola): ~11 µM; morphology of the fungus (C. beticola): markedly changed; rate of fungal hyphal extension (C. beticola): profoundly slow; fungicidal activity against C. beticola (C. beticola; result in words): do not appear to exhibit fungicidal activity; Growth inhibition ([4]; protein concentration 40 μg/ml): 30%; Growth inhibition (Rhizoctonia solani; [5]): ni; Growth inhibition (Botrytis cinerea): ni |
